Target: Bacterial penicillin-binding protein (Bacteria) (UniProt P24228+P0AD68+P02918+P02919+P0AEB2+P0AD65+P08506)
Assay: Inhibition of Acinetobacter baumannii PBP transglycosylase activity at 50 uM using NBD-labeled lipid 2 as substrate after 30 mins by N-acetylmuramidase enzyme coupled HPLC analysis relative to control
Assay type: protein assay

CC(=O)N[C@H]1[C@H](O[C@H]2[C@H](O)[C@H](O)[C@@H](CP(=O)(O)OP(=O)(O)OC/C=C(\C)CC/C=C(/C)CC/C=C(\C)CCC=C(C)C)N[C@@H]2CO)O[C@H](CO)[C@@H](O)[C@@H]1O
inhibition: 70%
